In patent US11655242B2, “Glucagon-like peptide1 receptor agonists” (Eli Lilly and Company, priority 2019, dated 2023):
Like-named read-outs stand apart in the source and are kept apart here.

Tests used:
hERG K+ channel = hERG K+ channel (Homo sapiens (Human), UniProt Q12809); test: Human hERG K+ Channel Affinity Radioligand Binding Assay; details: pH 7.4, probe [3H]dofetilide, 3 nM, read-out: Percent inhibition (%) at 100 μM compound concentration, n = 1
Protocol: Human hERG K^+ Channel Affinity Radioligand Binding Assay
The affinity of compounds for the human hERG K^+ channel in transfected HEK-293 cells is evaluated in a radioligand binding assay as described herein. Cell membrane homogenates (about […]) are incubated for 60 min at 22° C. with 3 nM [^3H]dofetilide in the absence or presence of the test compound in a buffer containing 50 mM Tris-HCl (pH 7.4), 10 mM KCl and 1 mM MgCl2. The assay is carried out in a 96-well plate format with a volume of 200 μL, containing a maximum of 1% DMSO from initial solubilization of test compound. Following incubation, the samples are filtered rapidly under vacuum through glass fiber filters (GF/B, Packard) presoaked with 0.3% PEI and rinsed several times with ice-cold 50 mM Tris-HCl, 10 mM KCl and 1 mM MgCl2 using a 96-sample cell harvester (Unifilter, Packard). The filters are dried and then counted for radioactivity in a scintillation counter (Topcount, Packard) using a scintillation cocktail (Microscint 0, Packard).

[1] = Non-Human Primate (NHP) Pharmacokinetics; type: in vivo; details: cynomolgus monkey, plasma, IV 0.5 mg/kg, fasted male cynomolgus monkeys; for Vd: steady-state, read-out: Volume of distribution
Protocol: Non-Human Primate (NHP) Pharmacokinetics:
The test compound is administered to fasted male cynomolgus monkeys intravenously (IV) at 0.5 mg/kg (using a dose volume of 1 mL/kg). Serial blood samples are collected at 0.08, 0.25, 0.5, 1, 2, 4, 8, 12, and 24 hours post dose for IV bolus. After treatment with an EDTA […], plasma is obtained by centrifugation and stored at −70° C. until analysis by LC-MS/MS. Test article concentration is determined in plasma. Noncompartmental analysis is used to calculate plasma clearance and steady-state volume of distribution.

[2] = tested on: mice expressing the human GLP-1R; test: In Vivo Intraperitoneal Glucose Tolerance Test in Human GLP-1R Knock-in Mice; details: Mus musculus; read-out: Blood glucose lowering ED50
Protocol: In Vivo Intraperitoneal Glucose Tolerance Test in Human GLP-1R Knock-in Mice
The potency of the exemplified compounds to lower the concentration of blood glucose in vivo is determined using mice expressing the human GLP-1R (NCBI accession number NP_002053) from the mouse Glp-1r genetic locus (Jun, L. S., et al., PLoS One. 2014 9:e93746). Overnight fasted mice are orally administered the test compound solubilized in 10% Kolliphor® (HS15) in Polyetheylene Glycol 400 (PEG400). One hour post-dose, the animals are administered glucose by intraperitoneal injection (2 g/kg), and blood glucose levels are measured intermittingly over the next two hours using glucometers. A dose range of the test compound is delivered, and area under the curve calculations for each dose group are determined and fit to a four-parameter logistic model for calculating in vivo potency as an ED50 with a 95% confidence interval.

PDE10A1 = PDE10A1 (Homo sapiens (Human), UniProt Q9Y233); test: Phosphodiesterase 10 (PDE10) Enzyme Activity Assay; type: biochemical; details: read-out: IC50 (μM), n = 1, inhibition of PDE10A1; SPA, [3H]-cGMP substrate, maximal compound concentration 10 μM
Protocol: Phosphodiesterase 10 (PDE10) Enzyme Activity Assay
To generate phosphodiesterase 10A1 (PDE10A1) protein, a full-length PDE10A1 clone corresponding to GenBank ID AAD32595.1 is cloned into pFastBac1 (Invitrogen). The PDE10A1 protein with a C-terminal FLAG-tag is expressed by baculoviral infection of insect cells and purified using anti-FLAG M2-agarose (Sigma) and size exclusion chromatography on a Superdex 200 column (GE Healthcare) and stored at −80° C. in small aliquots (20 mM Tris-HCl, Ph 7.5, 150 mM NaCl, 10% Glycerol).
PDE10A1 enzyme activities are measured with a yittrium silicate based scintillation proximity assay (SPA) that detects radioactive nucleotide monophosphates but not cyclic monophosphates. The assay buffer is composed of 50 mM Tris-HCl pH 7.5, 8 mM MgCl2, 3.4 mM EDTA, and 0.1% BSA (Sigma). Assays are conducted in 384 well plates (3706, Corning) in a total volume of 50 μl: comprised of 24 μl PDE10A1 enzyme, 1 μl test compound and 25 μl of cyclic nucleotide. Test compounds are diluted in pure DMSO using ten-point concentration response curves with a 3-fold dilution factor and 1 μl is acoustically dispensed into assay plates using the Echo555 (LabCyte). 24 μl PDE10A1 protein is incubated with 1 μl compound for 30 min before the reaction is started by the addition of [8-^3H]-cGMP substrate (6.5 Ci/mmol, Perkin Elmer). Final concentration of components is […], 80 nM (3H-cGMP), and 2% DMSO in assay buffer. Maximal compound concentration in the reaction mixture is 10 μM. Reactions are incubated for 60 min at RT before quenching and the addition of […] SPA beads (RPNQ0150, Perkin Elmer). Bead bound radioactivity (product) is quantified 12 h later with a Microbeta counter (Perkin Elmer). Data is normalized to % inhibition and IC50 values are calculated using the 4 parameter logistic equation as described (Campbell R. M.; Dymshitz, J.; Eastwood, B. J.; et al. “Data Standardization for Results Management.” In: Sittampalam, G. S.; Grossman, A.; Brimacombe, K.; et al.; eds. Assay Guidance Manual. Bethesda (Md.): Eli Lilly & Company and the National Center for Advancing Translational Sciences; 2004.).

human GLP-1R = human GLP-1R (Homo sapiens (Human), UniProt P43220); test: Human GLP-1 Receptor HEK293 Cell cAMP Assay; details: for EC50: EC50 (nM) ± SEM (n), intracellular cAMP response, relative EC50; for Emax: percent of maximal response with human GLP-1(7-36)NH2
Protocol: After a 30 min incubation at 37° C., the resulting increase in intracellular cAMP is quantitatively determined using the CisBio cAMP Dynamic 2 HTRF Assay Kit (62AM4PEJ). Briefly, cAMP levels within the cell are detected by adding the cAMP-d2 conjugate in cell lysis buffer (10 μL) followed by the antibody anti-cAMP-Eu^3+-Cryptate, also in cell lysis buffer (10 μL). […] The amount of cAMP generated (nM) in each well is converted to a percent of the maximal response observed with human GLP-1(7-36)NH2. A relative EC50 value and percent top (Emax) are derived by non-linear regression analysis using the percent maximal response vs. the concentration of compound added, fitted to a four-parameter logistic equation.

[3] = HEK293 cell line with 104 fmol/mg expression density of GLP-1R
[4] = HEK293 cell line with 581 fmol/mg expression density of GLP-1R
[5] = HEK293, read-out: Emax (%) ± SEM (n), HEK293 cell line with 104 fmol/mg expression density of GLP-1R
[6] = HEK293, read-out: Emax (%) ± SEM (n), HEK293 cell line with 581 fmol/mg expression density of GLP-1R

Chain of hERG K+ channel (Q12809 whole entry): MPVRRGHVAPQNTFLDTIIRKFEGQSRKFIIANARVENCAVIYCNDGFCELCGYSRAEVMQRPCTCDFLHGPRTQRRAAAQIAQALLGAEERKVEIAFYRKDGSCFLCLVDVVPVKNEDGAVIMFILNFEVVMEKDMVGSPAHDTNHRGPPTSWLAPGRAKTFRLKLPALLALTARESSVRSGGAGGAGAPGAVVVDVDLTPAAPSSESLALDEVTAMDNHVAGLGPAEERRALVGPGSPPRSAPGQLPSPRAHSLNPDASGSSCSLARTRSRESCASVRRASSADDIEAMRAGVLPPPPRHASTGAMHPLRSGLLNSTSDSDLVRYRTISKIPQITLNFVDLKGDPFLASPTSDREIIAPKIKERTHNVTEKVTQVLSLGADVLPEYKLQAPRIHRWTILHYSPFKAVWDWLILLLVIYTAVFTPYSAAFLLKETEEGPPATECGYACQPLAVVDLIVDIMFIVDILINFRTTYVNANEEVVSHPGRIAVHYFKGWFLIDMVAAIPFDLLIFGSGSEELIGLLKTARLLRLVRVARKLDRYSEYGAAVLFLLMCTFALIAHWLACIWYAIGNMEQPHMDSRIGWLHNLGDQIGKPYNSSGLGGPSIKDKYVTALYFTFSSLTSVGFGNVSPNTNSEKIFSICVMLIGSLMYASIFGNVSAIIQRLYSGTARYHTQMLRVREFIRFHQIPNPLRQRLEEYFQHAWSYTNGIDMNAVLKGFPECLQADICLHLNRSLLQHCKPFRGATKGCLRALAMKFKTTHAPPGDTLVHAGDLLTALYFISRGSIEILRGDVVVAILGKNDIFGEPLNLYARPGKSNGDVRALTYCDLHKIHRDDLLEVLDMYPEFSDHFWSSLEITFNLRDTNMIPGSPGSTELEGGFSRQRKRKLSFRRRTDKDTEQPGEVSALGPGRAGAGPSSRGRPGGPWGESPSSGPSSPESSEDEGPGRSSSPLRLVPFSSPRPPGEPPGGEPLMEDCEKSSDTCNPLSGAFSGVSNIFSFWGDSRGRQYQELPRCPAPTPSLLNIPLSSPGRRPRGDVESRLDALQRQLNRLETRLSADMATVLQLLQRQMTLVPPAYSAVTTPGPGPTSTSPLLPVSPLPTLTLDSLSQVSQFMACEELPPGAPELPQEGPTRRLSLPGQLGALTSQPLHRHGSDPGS
Chain of PDE10A1 (Q9Y233 other isoform, or with tags, fused parts or gaps): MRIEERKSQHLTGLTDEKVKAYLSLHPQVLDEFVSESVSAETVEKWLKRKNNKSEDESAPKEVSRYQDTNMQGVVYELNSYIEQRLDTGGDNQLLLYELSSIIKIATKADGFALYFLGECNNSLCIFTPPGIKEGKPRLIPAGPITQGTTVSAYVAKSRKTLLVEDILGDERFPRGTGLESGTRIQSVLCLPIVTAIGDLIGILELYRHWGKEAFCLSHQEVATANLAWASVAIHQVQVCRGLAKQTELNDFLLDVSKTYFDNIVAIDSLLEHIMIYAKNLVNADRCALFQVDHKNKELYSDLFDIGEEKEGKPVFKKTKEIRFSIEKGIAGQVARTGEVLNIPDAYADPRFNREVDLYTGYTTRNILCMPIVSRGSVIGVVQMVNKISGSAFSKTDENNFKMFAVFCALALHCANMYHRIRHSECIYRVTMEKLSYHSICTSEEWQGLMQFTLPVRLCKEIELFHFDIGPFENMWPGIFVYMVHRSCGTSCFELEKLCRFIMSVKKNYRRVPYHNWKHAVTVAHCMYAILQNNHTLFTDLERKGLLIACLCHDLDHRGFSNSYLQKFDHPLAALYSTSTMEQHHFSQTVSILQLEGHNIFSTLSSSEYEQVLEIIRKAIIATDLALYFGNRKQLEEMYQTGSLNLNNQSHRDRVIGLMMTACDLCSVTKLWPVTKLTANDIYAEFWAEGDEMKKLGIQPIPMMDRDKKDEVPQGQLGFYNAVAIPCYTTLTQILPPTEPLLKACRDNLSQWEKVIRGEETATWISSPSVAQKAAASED
Chain of human GLP-1R (P43220 24-463): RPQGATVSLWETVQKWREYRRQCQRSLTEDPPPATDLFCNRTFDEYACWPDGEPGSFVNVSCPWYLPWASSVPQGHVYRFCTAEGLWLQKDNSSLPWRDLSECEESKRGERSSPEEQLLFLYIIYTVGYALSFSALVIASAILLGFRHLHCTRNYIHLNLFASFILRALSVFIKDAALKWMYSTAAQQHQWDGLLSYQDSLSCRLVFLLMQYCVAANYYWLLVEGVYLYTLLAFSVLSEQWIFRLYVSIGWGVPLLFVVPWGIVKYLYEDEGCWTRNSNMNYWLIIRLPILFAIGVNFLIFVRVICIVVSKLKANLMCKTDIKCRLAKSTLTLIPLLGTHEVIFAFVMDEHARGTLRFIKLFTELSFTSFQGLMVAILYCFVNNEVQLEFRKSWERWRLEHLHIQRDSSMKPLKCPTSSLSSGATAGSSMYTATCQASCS

| SMILES | inhibition at 60 min, 100 µM (hERG K+ channel) | clearance [1] | Vd [1] | ED50 [2] | IC50 (PDE10A1) | EC50 (human GLP-1R; [3]) | EC50 (human GLP-1R; [4]) | Emax (human GLP-1R; [5]) | Emax (human GLP-1R; [6]) |
| --- | --- | --- | --- | --- | --- | --- | --- | --- | --- |
| Cc1cc(Cc2nc3ccc(C(=O)O)cc3n2C[C@@H]2CCO2)c(F)cc1-c1cccc(OCc2ccc(C#N)cc2F)n1 [Example 2, 2-[[4-[6-[(4-Cyano-2-fluoro-phenyl)methoxy]-2-pyridyl]-2-fluoro-5-methyl-phenyl]methyl]-3-[[(2S)-oxetan-2-yl]methyl]benzimidazole-5-carboxylic Acid] | 54% | 0.66 L/h/kg | 1.1 L/kg | 0.07 mg/kg | 7.43 µM | 3.97 ± 0.61 nM | 1.14 ± 0.315 nM | 79.2 ± 3.2% | 104 ± 4.35% |
| Cc1cc(Cc2nc3ccc(C(=O)O)cc3n2C[C@@H]2CCO2)ccc1-c1cccc(OCc2ccc(C#N)cc2F)n1 [Example 1, 2-[[4-[6-[(4-Cyano-2-fluoro-phenyl)methoxy]-2-pyridyl]-3-methyl-phenyl]methyl]-3-[[(2S)-oxetan-2-yl]methyl]benzimidazole-5-carboxylic Acid] | 0% | 0.78 L/h/kg | 1.2 L/kg | 0.09 mg/kg | > 10 µM | 20 ± 3.25 nM | 9.33 ± 1.36 nM | 71.4 ± 2.26% | 99.5 ± 2.53% |
| N#Cc1ccc(COc2cccc(-c3cc(F)c(Cc4nc5ccc(C(=O)O)cc5n4C[C@@H]4CCO4)c(F)c3)n2)c(F)c1 [Example 4, 2-[[4-[6-[(4-Cyano-2-fluoro-phenyl)methoxy]-2-pyridyl]-2,6-difluoro-phenyl]methyl]-3-[(2S)-oxetan-2-ylmethyl]benzimidazole-5-carboxylic Acid] |  |  |  |  | 5.41 µM | 9.59 ± 2.36 nM | 3.99 ± 0.378 nM | 78.3 ± 5.1% | 99.2 ± 4% |
| Cc1c(-c2cccc(OCc3ccc(C#N)cc3F)n2)ccc(Cc2nc3ccc(C(=O)O)cc3n2C[C@@H]2CCO2)c1F [Example 5, 2-[[4-[6-[(4-Cyano-2-fluoro-phenyl)methoxy]-2-pyridyl]-2-fluoro-3-methyl-phenyl]methyl]-3-[[(2S)-oxetan-2-yl]methyl]benzimidazole-5-carboxylic Acid] |  |  |  |  |  | 23.6 ± 5.43 nM | 6.45 ± 0.934 nM | 76.7 ± 3.88% | 105 ± 2.43% |
| N#Cc1ccc(COc2cccc(-c3ccc(Cc4nc5ccc(C(=O)O)cc5n4C[C@@H]4CCO4)c(F)c3)n2)c(F)c1 [Example 3, 2-[[4-[6-[(4-Cyano-2-fluoro-phenyl)methoxy]-2-pyridyl]-2-fluoro-phenyl]methyl]-3-[(2S)-oxetan-2-ylmethyl]benzimidazole-5-carboxylic Acid] | 37% | 0.36 L/h/kg | 1.1 L/kg | 0.06 mg/kg | > 10 µM |  |  |  |  |
